Source: patent US7667054B2, “Cytotoxic agents comprising new taxanes” (priority 2004, dated 2010)

What was measured:
MCF7 = assay: activity of the taxoids on MCF7 (procedure of Riou, Naudin and Lavelle); type: cell-based; conditions: Homo sapiens, MCF7, read-out: MCF7
Procedure: (§1) The activity of the compounds of the present invention were determined following the proceeding described by Riou, Naudin and Lavelle in Biochemical and Biophysical Research Communications; Vol. 187, No1, 1992, p 164-170.

A549 = assay: activity of the taxoids on A549 (procedure of Riou, Naudin and Lavelle); type: cell-based; conditions: Homo sapiens, A549, read-out: A549
Procedure: as §1

A-375 cells = assay: in vitro potency of huC242-Taxoid conjugate and free taxoid, WST-8 assay, antigen negative cells; type: cell-based, human; conditions: for IC50: human melanoma A-375 cells (antigen negative), 4 days, WST-8
Procedure: (§2) Samples of free taxoid or huC242-Taxoid conjugate were added to a 96-well flat bottomed tissue culture plate and titrated using serial dilutions ranging from 1×10^−12 M to 3×10^−7 M. Human colon tumor cells, COLO 205, or human melanoma cells, A-375, were added to the wells in such a way that there were triplicate samples for each drug concentration for each cell line. The plates were incubated at 37° C. in an atmosphere of 5% CO2 for 4 days.
(§3) At the end of the incubation period, 20 μl of the tetrazolium reagent WST-8 (2-(2-methoxy-nitrophenyl)-3-(4-nitrophenyl)-5-(2,4-disulfophenyl)-2-tetrazolium, monosodium salt]) was added to each well, and the plates were returned to the incubator for 2 hours. The absorbance in each well of the plates was then measured using the Molecular Devices plate reader at 450 nm. Surviving fraction of cells at each concentration of taxoid or conjugate are plotted in FIGS. 2a, b.

COLO 205 cells = assay: in vitro potency of huC242-Taxoid conjugate and free taxoid, WST-8 assay, antigen positive cells; type: cell-based; conditions: human colon cancer COLO 205 cells (antigen positive), 4 days
Procedure: as §2, §3

Molecule: COc1ccc(OC)c(C(=O)O[C@H]2[C@@H]3[C@]4(OC(C)=O)CO[C@@H]4C[C@H]4O[C@@H]([C@H](OC(=O)N(C)C)C5=C(C)[C@@H](OC(=O)[C@H](O)[C@H](C=C(C)C)NC(=O)OC(C)(C)C)C[C@]2(O)C5(C)C)[C@@]34C)c1 [IGT-15-014]
- IC50 (MCF7): 0.024 nM
- IC50 (A549): 0.03 nM

Molecule: COc1ccc(OC)c(C(=O)O[C@H]2[C@@H]3[C@]4(OC(C)=O)CO[C@@H]4C[C@H]4O[C@@H]([C@H](OC(=O)NCC(C)(C)SSC)C5=C(C)[C@@H](OC(=O)[C@H](O)[C@@H](NC(=O)OC(C)(C)C)c6ccco6)C[C@]2(O)C5(C)C)[C@@]34C)c1 [IGT-15-075, 7α,9α-epoxy-3′-dephenyl-3′-(2-furyl)-2-debenzoyl-2-(2,5-dimethoxybenzoyl)-10-(N-2,2-dimethyl-2-methyidithio-ethylcarbamoyl)-docetaxel]
- IC50 (A-375 cells; 96 h): ~0.1 nM
- IC50 (COLO 205 cells; 96 h): ~0.1 nM

B1: huC242-taxoid (conjugate, chains of the INN, looked up)
VH: QVQLVQSGAEVKKPGETVKISCKASDYTFTYYGMNWVKQAPGQGLKWMGWIDTTTGEPTYAQKFQGRIAFSLETSASTAYLQIKSLKSEDTATYFCARRGPYNWYFDVWGQGTTVTVSS
VL: DIVMTQSPLSVPVTPGEPVSISCRSSKSLLHSNGNTYLYWFLQRPGQSPQLLIYRMSNLVSGVPDRFSGSGSGTAFTLRISRVEAEDVGVYYCLQHLEYPFTFGPGTKLELK
modifications: taxoid payload conjugate
- fold less sensitive, antigen negative cells vs COLO 205 (A-375 cells; A-375 versus COLO 205): about 150 fold
- IC50 (A-375 cells): 12 nM
- IC50 (COLO 205 cells): 0.08 nM
